Results from the CheMixHub viscosity set.

Test: xn = mol fraction of the nth substance listed

NC=O + CCO
Conditions | viscosity [mPa·s]
293.15 K, 101 kPa, x1 = 0.0698 | 1.251
298.15 K, 100 kPa, x1 = 0.08099 | 1.17
298.15 K, 100 kPa, x1 = 0.141 | 1.24
298.15 K, 100 kPa, x1 = 0.1644 | 1.27
298.15 K, 100 kPa, x1 = 0.2196 | 1.37
298.15 K, 100 kPa, x1 = 0.25 | 1.43
298.15 K, 100 kPa, x1 = 0.2924 | 1.5
298.15 K, 100 kPa, x1 = 0.3698 | 1.66
298.15 K, 100 kPa, x1 = 0.4031 | 1.73
298.15 K, 100 kPa, x1 = 0.4124 | 1.74
298.15 K, 100 kPa, x1 = 0.5124 | 1.98
298.15 K, 100 kPa, x1 = 0.5644 | 2.11
298.15 K, 100 kPa, x1 = 0.6278 | 2.29
298.15 K, 100 kPa, x1 = 0.7077 | 2.5
298.15 K, 100 kPa, x1 = 0.7726 | 2.67
298.15 K, 100 kPa, x1 = 0.8608 | 2.91
298.15 K, 100 kPa, x1 = 0.9558 | 3.19
298.15 K, 101 kPa, x1 = 0.0698 | 1.152
298.15 K, 101 kPa, x1 = 0.1005 | 1.229
298.15 K, 101 kPa, x1 = 0.1991 | 1.376
298.15 K, 101 kPa, x1 = 0.3014 | 1.563
298.15 K, 101 kPa, x1 = 0.4071 | 1.816
298.15 K, 101 kPa, x1 = 0.4991 | 2.01
298.15 K, 101 kPa, x1 = 0.6093 | 2.259
298.15 K, 101 kPa, x1 = 0.7024 | 2.515
298.15 K, 101 kPa, x1 = 0.8108 | 2.782
298.15 K, 101 kPa, x1 = 0.9 | 3.054
303.15 K, 101 kPa, x1 = 0.0698 | 1.043
303.15 K, 101.3 kPa, x1 = 0.0716 | 0.97
303.15 K, 101.3 kPa, x1 = 0.1365 | 1.03
303.15 K, 101.3 kPa, x1 = 0.2357 | 1.1
303.15 K, 101.3 kPa, x1 = 0.3142 | 1.3
303.15 K, 101.3 kPa, x1 = 0.3842 | 1.4
303.15 K, 101.3 kPa, x1 = 0.4597 | 1.5
303.15 K, 101.3 kPa, x1 = 0.5389 | 1.6
303.15 K, 101.3 kPa, x1 = 0.609 | 1.8
303.15 K, 101.3 kPa, x1 = 0.6872 | 1.9
303.15 K, 101.3 kPa, x1 = 0.7741 | 2.1
303.15 K, 101.3 kPa, x1 = 0.7928 | 2.2
303.15 K, 101.3 kPa, x1 = 0.926 | 2.6
308.15 K, 101 kPa, x1 = 0.0698 | 0.9456
308.15 K, 101.3 kPa, x1 = 0.0716 | 0.89
308.15 K, 101.3 kPa, x1 = 0.1365 | 0.93
308.15 K, 101.3 kPa, x1 = 0.2357 | 1.05
308.15 K, 101.3 kPa, x1 = 0.3142 | 1.1
308.15 K, 101.3 kPa, x1 = 0.3842 | 1.2
308.15 K, 101.3 kPa, x1 = 0.4597 | 1.3
308.15 K, 101.3 kPa, x1 = 0.5389 | 1.5
308.15 K, 101.3 kPa, x1 = 0.609 | 1.5
308.15 K, 101.3 kPa, x1 = 0.6872 | 1.7
308.15 K, 101.3 kPa, x1 = 0.7741 | 1.8
308.15 K, 101.3 kPa, x1 = 0.7928 | 1.9
308.15 K, 101.3 kPa, x1 = 0.926 | 2.3
313.15 K, 101 kPa, x1 = 0.0698 | 0.8712
313.15 K, 101 kPa, x1 = 0.1005 | 0.916
313.15 K, 101 kPa, x1 = 0.1991 | 1.016
313.15 K, 101 kPa, x1 = 0.3014 | 1.145
313.15 K, 101 kPa, x1 = 0.4071 | 1.319
313.15 K, 101 kPa, x1 = 0.4991 | 1.465
313.15 K, 101 kPa, x1 = 0.6093 | 1.622
313.15 K, 101 kPa, x1 = 0.7024 | 1.8
313.15 K, 101 kPa, x1 = 0.8108 | 1.986
313.15 K, 101 kPa, x1 = 0.9 | 2.174
313.15 K, 101.3 kPa, x1 = 0.0716 | 0.8
313.15 K, 101.3 kPa, x1 = 0.1365 | 0.85
313.15 K, 101.3 kPa, x1 = 0.2357 | 0.95
313.15 K, 101.3 kPa, x1 = 0.3142 | 1.04
313.15 K, 101.3 kPa, x1 = 0.3842 | 1.1
313.15 K, 101.3 kPa, x1 = 0.4597 | 1.2
313.15 K, 101.3 kPa, x1 = 0.5389 | 1.3
313.15 K, 101.3 kPa, x1 = 0.609 | 1.4
313.15 K, 101.3 kPa, x1 = 0.6872 | 1.5
313.15 K, 101.3 kPa, x1 = 0.7741 | 1.7
313.15 K, 101.3 kPa, x1 = 0.7928 | 1.7
313.15 K, 101.3 kPa, x1 = 0.926 | 2
318.15 K, 101 kPa, x1 = 0.0698 | 0.8052
318.15 K, 101.3 kPa, x1 = 0.0716 | 0.73
318.15 K, 101.3 kPa, x1 = 0.1365 | 0.77
318.15 K, 101.3 kPa, x1 = 0.2357 | 0.86
318.15 K, 101.3 kPa, x1 = 0.3142 | 0.94
318.15 K, 101.3 kPa, x1 = 0.3842 | 1.02
318.15 K, 101.3 kPa, x1 = 0.4597 | 1.1
318.15 K, 101.3 kPa, x1 = 0.5389 | 1.2
318.15 K, 101.3 kPa, x1 = 0.609 | 1.2
318.15 K, 101.3 kPa, x1 = 0.6872 | 1.3
318.15 K, 101.3 kPa, x1 = 0.7741 | 1.5
318.15 K, 101.3 kPa, x1 = 0.7928 | 1.5
318.15 K, 101.3 kPa, x1 = 0.926 | 1.8
323.15 K, 101.3 kPa, x1 = 0.0716 | 0.64
323.15 K, 101.3 kPa, x1 = 0.1365 | 0.68
323.15 K, 101.3 kPa, x1 = 0.2357 | 0.75
323.15 K, 101.3 kPa, x1 = 0.3142 | 0.83
323.15 K, 101.3 kPa, x1 = 0.3842 | 0.89
323.15 K, 101.3 kPa, x1 = 0.4597 | 0.93
323.15 K, 101.3 kPa, x1 = 0.5389 | 0.98
323.15 K, 101.3 kPa, x1 = 0.609 | 1.04
323.15 K, 101.3 kPa, x1 = 0.6872 | 1.1
323.15 K, 101.3 kPa, x1 = 0.7741 | 1.2
323.15 K, 101.3 kPa, x1 = 0.7928 | 1.2
323.15 K, 101.3 kPa, x1 = 0.926 | 1.5
